Where two headings read alike, the source gives them in different places.
Molecular target: T1, delF508-CFTR (Homo sapiens, UniProt P13569, DEL508-508)
T1 construct: endogenous in cells; host or cells: CFBE41o- human CF bronchial epithelial cells (delF508 homozygous)
Assay: SPQ halide-sensitive fluorescence dye assay for rescue of halide efflux (8-point concentration-response)
Type: cell-based
Conditions: for potency and efficacy compared with VX-809 in SPQ assay: versus VX-809
Experimental: The method of profiling can include detecting the rescue of halide efflux from a cell. The step of detecting a rescue of halide efflux from the cell can be monitored using the halide quenched dye 6-methoxy-N-(3-sulfopropyl)-quinolinium (SPQ, Molecular Probes Inc., Eugene, Oreg.). In this method, cells are treated with a compound as described herein for a period of time (e.g., 48 hours). The rescue or correction of halide efflux is then detected using the SPQ assay with the halide dye. […] Optionally, the halide efflux is chloride efflux. The method of screening can further comprise performing the method with multiple concentrations of the compound.
The compounds were initially subjected to the SPQ halide-sensitive fluorescence dye profiling assay for rescue or correction of membrane chloride ion permeability or transport with an 8-point concentration-response curve. The EC50 values for the compounds described herein were determined using SPQ (Table 1). The ΔSPQ value was calculated by determining the difference between the maximum and minimum SPQ values for the compounds.
To perform the SPQ high throughput screening assay, CFBE41o-cells were seeded into 96-well microtiter plates and were loaded with the fluorescent halide-sensitive dye, SPQ, in serum-containing culture medium. Certain wells were loaded with known positive control corrector molecules, including the industry standard Vertex 809 (VX-809; Vertex Pharmaceuticals, Cambridge, Mass.) at 3 μM, which is the maximally effective profiling dose for VX-809. The test compounds were loaded into wells and were tested in triplicate wells at a 10 μM dose and incubated over 48 hours at room temperature. During the 48 hour period, SPQ was absorbed. Plates were washed in a sodium chloride (NaCl) based Ringer and read once over two minutes to set the baseline SPQ fluorescence activity. Then, NaCl was replaced by sodium nitrate (NaNO3) based Ringer. The plates were read twice over four minutes. The primary high throughput screen (HTS) data were analyzed to detect any function of rescued delF508-CFTR under basal conditions. The plate was read up to two times to complete the SPQ HTS assay.

[1] = CFBE41o- cells, 48 h, read-out: SPQ EC50

T1 sequence (P13569 with tags, fused parts or gaps DEL508-508): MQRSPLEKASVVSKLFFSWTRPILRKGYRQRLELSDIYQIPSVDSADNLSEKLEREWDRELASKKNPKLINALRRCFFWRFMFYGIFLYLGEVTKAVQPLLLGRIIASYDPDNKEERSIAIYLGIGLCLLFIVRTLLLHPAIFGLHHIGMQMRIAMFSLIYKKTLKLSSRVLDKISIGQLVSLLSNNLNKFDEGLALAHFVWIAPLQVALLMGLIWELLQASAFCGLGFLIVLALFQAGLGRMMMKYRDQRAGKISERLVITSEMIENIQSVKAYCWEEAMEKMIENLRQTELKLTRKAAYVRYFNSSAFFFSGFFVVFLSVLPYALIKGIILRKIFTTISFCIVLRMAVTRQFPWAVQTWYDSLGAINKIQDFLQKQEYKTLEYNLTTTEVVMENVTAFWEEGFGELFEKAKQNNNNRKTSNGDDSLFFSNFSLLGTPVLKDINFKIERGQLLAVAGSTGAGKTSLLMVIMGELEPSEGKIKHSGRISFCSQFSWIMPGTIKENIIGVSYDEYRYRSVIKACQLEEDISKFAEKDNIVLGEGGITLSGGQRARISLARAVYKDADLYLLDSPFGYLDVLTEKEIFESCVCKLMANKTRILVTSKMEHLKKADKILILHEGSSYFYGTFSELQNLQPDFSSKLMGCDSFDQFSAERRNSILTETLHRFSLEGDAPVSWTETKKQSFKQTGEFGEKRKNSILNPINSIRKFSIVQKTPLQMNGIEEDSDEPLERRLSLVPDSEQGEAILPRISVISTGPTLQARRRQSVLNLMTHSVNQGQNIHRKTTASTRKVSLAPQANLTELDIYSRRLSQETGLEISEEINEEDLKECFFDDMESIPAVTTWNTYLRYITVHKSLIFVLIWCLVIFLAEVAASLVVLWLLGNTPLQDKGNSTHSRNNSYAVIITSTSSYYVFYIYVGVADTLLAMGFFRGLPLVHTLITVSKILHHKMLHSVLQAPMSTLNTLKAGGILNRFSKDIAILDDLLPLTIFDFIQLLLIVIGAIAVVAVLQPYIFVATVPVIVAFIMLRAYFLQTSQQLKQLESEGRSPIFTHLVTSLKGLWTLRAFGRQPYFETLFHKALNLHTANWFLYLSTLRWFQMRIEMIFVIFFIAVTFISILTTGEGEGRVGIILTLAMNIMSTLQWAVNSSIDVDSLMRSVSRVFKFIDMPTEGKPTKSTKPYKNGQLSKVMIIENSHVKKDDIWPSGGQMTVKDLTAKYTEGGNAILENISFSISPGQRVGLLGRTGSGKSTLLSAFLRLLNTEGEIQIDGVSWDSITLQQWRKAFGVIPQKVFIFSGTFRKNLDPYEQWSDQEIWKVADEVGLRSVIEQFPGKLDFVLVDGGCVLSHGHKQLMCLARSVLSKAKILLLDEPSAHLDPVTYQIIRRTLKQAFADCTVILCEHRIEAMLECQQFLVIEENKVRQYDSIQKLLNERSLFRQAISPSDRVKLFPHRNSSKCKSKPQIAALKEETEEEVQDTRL

Row | Compound | ΔSPQ (difference between maximum and minimum SPQ values) (CFBE41o- cells, 48 h) | EC50 [1] | SPQ EC50 (CFBE41o- cells, 48 h) | other results
1 | CSc1nc(SCC(=O)O)c2sc3c(c2n1)COC(C)(C)C3 [Compound 2] | 4862 RFU | 15.8 µM |  | 
2 | Cc1cn2c3c(=O)n(C)c(=O)n(C)c3nc2n1-c1ccccc1O [Compound A-1] |  |  | No effect | 
3 | Cc1cn2c3c(=O)n(C)c(=O)n(C)c3nc2n1-c1cccc(O)c1 [Compound A-2] | 4000 RFU | 8.9 µM |  | potency and efficacy compared with VX-809 in SPQ assay: superior potency and efficacy to VX-809
4 | Cc1cn2c3c(=O)n(C)c(=O)n(C)c3nc2n1-c1ccc(O)cc1 [Compound A-3] | 2100 RFU | 6.5 µM |  | potency and efficacy compared with VX-809 in SPQ assay: superior potency and efficacy to VX-809
5 | Cc1cn2c3c(=O)n(C)c(=O)n(C)c3nc2n1-c1ccccn1 [Compound A-4] |  |  | No effect | 
6 | Cc1cn2c3c(=O)n(C)c(=O)n(C)c3nc2n1-c1cccnc1 [Compound A-5] |  |  | No effect | 
7 | Cc1cn2c3c(=O)n(C)c(=O)n(C)c3nc2n1CCO [Compound A-7] |  |  | No effect | 
8 | Cc1cn2c3c(=O)n(C)c(=O)n(C)c3nc2n1CCN(C)C [Compound A-8] |  |  | No effect | 
9 | Cc1cn2c3c(=O)n(C)c(=O)n(C)c3nc2n1CC[N+](C)(C)C [Compound A-9] |  |  | No effect | 
10 | Cc1cn2c3c(=O)n(C)c(=O)n(C)c3nc2n1CCN1CCOCC1 [Compound A-10] |  |  | No effect | 
11 | Cn1c(=O)c2nc(N3CCOCC3)[nH]c2n(C)c1=O [Compound B-1] |  | 9.7 µM |  | 
12 | Cn1c(=O)c2nc(N3CCNCC3)[nH]c2n(C)c1=O [Compound B-2] |  |  | No effect | 
13 | Cn1c(=O)c2nc(N3CCN(c4ccccn4)CC3)[nH]c2n(C)c1=O [Compound B-3] |  | 10 µM |  | 
14 | Cn1c(=O)c2[nH]c(N3CCN(c4ccncc4)CC3)nc2n(C)c1=O [Compound B-4] |  |  | No effect | 
15 | Cn1c(=O)c2nc(N3CCN(c4ncccn4)CC3)[nH]c2n(C)c1=O [Compound B-5] |  |  | No effect | 
16 | Cn1c(=O)c2[nH]c(N3CCN(c4ccc(O)cc4)CC3)nc2n(C)c1=O [Compound B-6] |  |  | No effect | 
17 | COc1ccc(CN2CCN(c3nc4c(=O)n(C)c(=O)n(C)c4[nH]3)CC2)cc1 [Compound B-7.1] | 800 RFU | 0.9 µM |  | potency and efficacy compared with VX-809 in SPQ assay: superior potency and efficacy to VX-809
18 | COc1ccc(CN2CCN(c3nc4c(=O)n(C)c(=O)n(C)c4[nH]3)CC2)cc1OC [Compound B-7.2] |  | > 30 µM |  | 
19 | CCOc1ccc(CN2CCN(c3nc4c(=O)n(C)c(=O)n(C)c4[nH]3)CC2)cc1 [Compound B-7.3] |  | 3.8 µM |  | 
20 | CSc1ccc(CN2CCN(c3nc4c(=O)n(C)c(=O)n(C)c4[nH]3)CC2)cc1 [Compound B-7.4] |  |  | No effect to inhibitory | 
21 | Cc1ccc(CN2CCN(c3nc4c(=O)n(C)c(=O)n(C)c4[nH]3)CC2)cc1 [Compound B-7.5] |  |  | No effect | 
22 | Cn1c(=O)c2nc(N3CCN(Cc4ccc(OC(F)(F)F)cc4)CC3)[nH]c2n(C)c1=O [Compound B-7.6] |  |  | No effect | 
23 | Cn1c(=O)c2nc(N3CCN(Cc4ccc(C(F)(F)F)cc4)CC3)[nH]c2n(C)c1=O [Compound B-7.7] |  |  | No effect | 
24 | Cn1c(=O)c2nc(N3CCN(Cc4ccc5c(c4)OCCO5)CC3)[nH]c2n(C)c1=O [Compound B-7.8] |  |  | No effect | 
25 | COc1ccccc1CN1CCN(c2nc3c(=O)n(C)c(=O)n(C)c3[nH]2)CC1 [Compound B-7.9] | 2800 RFU | 3.2 µM |  | potency and efficacy compared with VX-809 in SPQ assay: superior potency and efficacy to VX-809
26 | COc1cccc(CN2CCN(c3nc4c(=O)n(C)c(=O)n(C)c4[nH]3)CC2)c1 [Compound B-7.10] | 3750 RFU | 7.1 µM |  | potency and efficacy compared with VX-809 in SPQ assay: superior potency and efficacy to VX-809

Row | Compound | ΔSPQ (difference between maximum and minimum SPQ values) (CFBE41o- cells, 48 h) | EC50 [1] | SPQ EC50 (CFBE41o- cells, 48 h) | other results
27 | COc1ccc(C(=O)N2CCN(c3nc4c(=O)n(C)c(=O)n(C)c4[nH]3)CC2)cc1 [Compound B-7.12] |  | 6.2 µM |  | 
28 | COc1ccc(N2CCN(c3nc4c([nH]3)c(=O)n(C)c(=O)n4C)CC2)cc1 [Compound B-7.17] |  | 3.5 µM |  | 
29 | COCCCCN1CCN(c2nc3c(=O)n(C)c(=O)n(C)c3[nH]2)CC1 [Compound B-7.20] |  |  | No effect | 
30 | Cn1c(=O)c2nc(N3CCN(Cc4ccc(O)cc4)CC3)[nH]c2n(C)c1=O [Compound B-7] |  |  | No effect | 
31 | Cn1c(=O)c2nc(NCCO)[nH]c2n(C)c1=O [Compound B-8] |  |  | No effect | 
32 | CN(C)CCNc1nc2c(=O)n(C)c(=O)n(C)c2[nH]1 [Compound B-9] |  |  | No effect | 
33 | Cn1c(=O)c2[nH]c(NCCN)nc2n(C)c1=O [Compound B-11] |  |  | No effect | 
34 | Cn1c(=O)c2[nH]c(NCCSc3ncccn3)nc2n(C)c1=O [Compound B-12] |  |  | No effect | 
35 | Cn1c(=O)c2[nH]c(NCCNc3ccccn3)nc2n(C)c1=O [Compound B-13] |  |  | No effect | 
36 | Cn1c(=O)c2nc(N3CCN(CCO)CC3)[nH]c2n(C)c1=O [Compound B-14] |  |  | No effect | 
37 | Cn1c(=O)c2[nH]c(N3CCC(O)CC3)nc2n(C)c1=O [Compound B-15] |  |  | No effect | 
38 | C=CCn1c(=O)c2c(nc3n(CCC)c(C)cn23)n(C)c1=O [Compound I-1] | 3801 RFU | 17.8 µM |  | 
39 | CCCCn1c(C)cn2c3c(=O)n(CCC)c(=O)n(C)c3nc12 [Compound I-2] | 3102 RFU |  |  | EC50: > 30 µM
40 | C/C=C/Cn1c(=O)c2c(nc3n(C(C)CC)c(C)cn23)n(C)c1=O (stereo not shown) [Compound I-3] | 5305 RFU | > 30 µM |  | 
41 | C=CCn1c(=O)c2c(nc3n(C(C)CC)c(C)c(C)n23)n(C)c1=O (stereo not shown) [Compound I-4] | 11108 RFU | 5.4 µM |  | 
42 | Cc1cccc(-n2c(C)c(C)n3c4c(=O)n(C)c(=O)n(C)c4nc23)c1 [Compound I-5] | 13531 RFU | > 30 µM |  | 
43 | CCn1c(=O)c2c(nc3n(-c4cccc(C)c4)c(C)c(C)n23)n(C)c1=O [Compound I-6] | 6023 RFU | 8.9 µM |  | 
44 | CCn1c(=O)c2c(nc3n(-c4ccc(F)cc4)c(C)c(C)n23)n(C)c1=O [Compound I-7] | 5779 RFU | 10.1 µM |  | 
45 | CCn1c(=O)c2c(nc3n(-c4ccc(C)cc4)c(C)c(C)n23)n(C)c1=O [Compound I-8] | 6975 RFU | 3.6 µM |  | 
46 | CCn1c(=O)c2c(nc3n(-c4ccc(C)cc4)c(C)cn23)n(C)c1=O [Compound I-9] | 3793 RFU | 3.7 µM |  | 
47 | CCn1c(=O)c2c(nc3n(-c4ccccc4)c(C)c(C)n23)n(C)c1=O [Compound I-10] | 4005 RFU | 4 µM |  | 
48 | Cc1ccc(C)c(Cn2c(=O)c3c(nc4[nH]c(C)c(C)n43)n(C)c2=O)c1 [Compound I-11] | 3705 RFU | > 30 µM |  | 
49 | CCCn1c(C)cn2c3c(=O)n(Cc4ccccc4)c(=O)n(C)c3nc12 [Compound I-12] | 6259 RFU | > 30 µM |  | 
50 | Cc1cc(C)cc(-n2c(C)cn3c4c(=O)n(C)c(=O)n(C)c4nc23)c1 [Compound I-13] | 6131 RFU | 9 µM |  | 
51 | CCCn1c(=O)c2c(nc3n(-c4ccccc4C)c(C)cn23)n(C)c1=O [Compound I-14] | 8875 RFU | 18.9 µM |  | 

— US9546176B2, “Small molecule bicyclic and tricyclic CFTR correctors” (DISCOVERYBIOMED, INC., priority 2012, dated 2017)
